{"source": "patent US20250034586A1", "about": "“METHOD FOR EDITING BANANA GENES” (Tropic Biosciences UK Limited, priority 2021, published 2025)", "key": {"[1]": {"tested_on": "Tomato plants", "settings": "in vivo; cited from earlier work"}, "[2]": {"tested_on": "ALS1 or ALS2", "assay": "Genotyping of CSF-selected samples (PBE experiments)", "type": "cell-based, banana", "settings": "across all experiments, embryos and shoots", "source_text": "gDNA from embryos and plantlets was extracted and qPCR was used to test for the presence of integrated tDNA in the plant genome. Three independent qPCRs were run on each sample with different sets of primers (listed below) spanning the tDNA, ranging from the left to right border. An additional qPCR was run on an endogenous banana gene (actin) for normalisation of Ct values. All qPCRs were run on the LightCycler® 96 System (Roche) using PowerUp™ SYBR® Green Master Mix (Thermo Fisher Scientific™).\nFor edit validation, amplicons for each target gene (als1, als2, ppo2, aco1) were made using Q5® High-Fidelity 2× Master Mix (New England Biolabs, NEB) using reaction settings listed below. PCR products were purified using Monarch® PCR & DNA Cleanup Kit (NEB) according to manufacturer's specifications. The amplicons were after validated by Sanger sequencing."}, "[3]": {"tested_on": "Banana embryogenic cell suspensions (ECS)", "assay": "CSF kill curves in banana ECS (number of embryos after short CSF treatment)", "type": "cell-based", "settings": "for Number of banana embryos developed (Avg): 3 months after treatment", "experimental": "Banana embryogenic cell suspensions (ECS) were pelleted in a falcon tube and mixed with CS (cell suspension) medium to a final cell density of 1-3%. An equal volume of the mixture was split into 6 flasks and the relevant amount of CSF was added to the final concentrations of 0, 10, 20, 50, 100 and 500 μg/L (1st kill curve) or 0, 0.5, 5, 50 and 100 mg/L (2nd kill curve). The ECS-CSF mixtures were placed/inoculated in 6 well plates (5 mL per well) and incubated at 65 rpm in the dark for 3, 5, 10, 15 days at 25° C.\nAt each time point, the ECS were collected in a cell strainer and washed with CS (cell suspension) medium to remove all the CSF. The cells were collected from the strainer and inoculated into embryo developing media (EDM) plates and developed for 2-3 months (until fully developed embryos were observed). The cells/embryos were subcultured every month. Each treatment was performed in triplicate and treated independently.\nThe number of embryos was assessed 2-3 months after CSF treatment. The embryos were counted under a stereo microscope using a 50-square grid to help the counting. For plates with too many embryos, only 3 squares from the 50 were counted and then the number of embryos was normalised for all of the plate. For the other plates all embryos were counted. Mean values±standard deviation (Stdev) were obtained from 3 technical replicates."}, "[4]": {"tested_on": "Rice protoplasts", "settings": "for 10dd; cited from earlier work"}, "[5]": {"tested_on": "banana rooting plantlets", "assay": "CSF kill curves in banana rooting plantlets (in medium, spraying, both)", "type": "in vivo", "experimental": "The effect of CSF was also evaluated in rooting plantlets. Three methods were tested, (i) incorporation of CSF in the rooting medium (RM), (ii) spraying the plantlets with CSF solution and (iii) incorporation in the media of a lower concentration of CSF (0.5 mg/L) and spraying the plantlets (concurrently).\nSix CSF concentrations, 0, 0.05, 0.5, 5, 50 and 100 mg/L, were tested in rooting plantlets.\nRooting banana plantlets were cleared of roots and split from the corm to have single shoots for testing with RM medium with or without CSF. Five to six shoots with similar morphology were inoculated into each phytotray.\nFor spraying tests, CSF solutions (concentrations above) were prepared in sterile deionised water or in 0.015% Silwett L-77. One mL of solution was sprayed onto each phytotray (five shoots per phytotray, so 1 mL between five shoots). For control conditions (Omg/L CSF), 1 mL of deionised water was used.\nA range of CSF concentrations (0, 0.05, 0.5, 5, 50, 100 mg/L) were tested in banana rooting shoots. Banana shoots were separated from roots and split to give single shoots that were inoculated into new media to determine the effect of CSF over a month of exposure. To assess the effectiveness of CSF in banana three approaches were tested: (i) incorporation of the toxin in RM medium, (ii) spraying the shoots, and (iii) spraying the shoots plus incorporation of a small amount of CSF […] in RM."}, "[6]": {"tested_on": "banana WT and ALS edited embryos", "assay": "CSF in ECS regeneration, optimisation for edited embryos", "type": "cell-based", "settings": "3 months treatment", "experimental": "Data were obtained for using CSF in ECS regeneration (3 months treatment) for concentrations 0, 25, 50 and 100 μg/L."}, "[7]": {"tested_on": "Potato somatic cells", "settings": "cited from earlier work"}, "[8]": {"tested_on": "Marchantia polymorpha spores", "settings": "(180 μg/L) for 7dd; cited from earlier work"}, "[9]": {"tested_on": "Sugar cane callus", "settings": "after 5 weeks; 3.6, 20, 50, 200, 500 μg/L tested; cited from earlier work"}}, "data": [{"smiles": "COc1nc(C)nc(NC(=O)NS(=O)(=O)c2ccccc2Cl)n1", "note": "[CSF, chlorsulfuron]", "values": [{"measurement": "CSF concentration reported to be effective", "setting": "[1]", "value": 3.6, "unit": "µg/L"}, {"measurement": "Non-transgenic rate in CSF selected samples", "setting": "[2]", "value": "> 10", "unit": "%"}, {"measurement": "Embryo number, 1st CSF kill curve", "setting": "[3]; 0, 10, 20, 50, 200, 500 μg/L CSF for 3, 5, 10 and 15 days", "value": "major differences in embryo number were not observed"}, {"measurement": "Fold-change non-CSF/+CSF (number of embryos)", "setting": "[3]; 0.5 mg/L CSF for 5dd", "value": 2.9}, {"measurement": "Number of banana embryos developed (Avg)", "setting": "[3]; 0.5 mg/L CSF for 5dd, 3 technical replicates", "value": 1109}, {"measurement": "Fold-change non-CSF/+CSF (number of embryos)", "setting": "[3]; 0.5 mg/L CSF for 10dd", "value": 32.6}, {"measurement": "Number of banana embryos developed (Avg)", "setting": "[3]; 0.5 mg/L CSF for 10dd", "value": 127}, {"measurement": "Fold-change non-CSF/+CSF (number of embryos)", "setting": "[3]; 0.5 mg/L CSF for 15dd", "value": 22.3}, {"measurement": "Number of banana embryos developed (Avg)", "setting": "[3]; 0.5 mg/L CSF for 15dd", "value": 217}, {"measurement": "Fold-change non-CSF/+CSF (number of embryos)", "setting": "[3]; 5 mg/L CSF for 5dd", "value": 24.9}, {"measurement": "Number of banana embryos developed (Avg)", "setting": "[3]; 5 mg/L CSF for 5dd", "value": 127}, {"measurement": "Fold-change non-CSF/+CSF (number of embryos)", "setting": "[3]; 5 mg/L CSF for 10dd", "value": 229.9}, {"measurement": "Number of banana embryos developed (Avg)", "setting": "[3]; 5 mg/L CSF for 10dd", "value": 18}, {"measurement": "Fold-change non-CSF/+CSF (number of embryos)", "setting": "[3]; 5 mg/L CSF for 15dd", "value": 167.0}, {"measurement": "Number of banana embryos developed (Avg)", "setting": "[3]; 5 mg/L CSF for 15dd", "value": 29}, {"measurement": "Decrease in the number of embryos", "setting": "[3]; 5 mg/L CSF for 10 days", "value": "higher than 200 ×"}, {"measurement": "Fold-change non-CSF/+CSF (number of embryos)", "setting": "[3]; 50 mg/L CSF for 5dd", "value": 54.5}, {"measurement": "Number of banana embryos developed (Avg)", "setting": "[3]; 50 mg/L CSF for 5dd", "value": 58}, {"measurement": "Fold-change non-CSF/+CSF (number of embryos)", "setting": "[3]; 50 mg/L CSF for 10dd", "value": 459.8}, {"measurement": "Number of banana embryos developed (Avg)", "setting": "[3]; 50 mg/L CSF for 10dd", "value": 9}, {"measurement": "Fold-change non-CSF/+CSF (number of embryos)", "setting": "[3]; 50 mg/L CSF for 15dd", "value": 1210.5}, {"measurement": "Number of banana embryos developed (Avg)", "setting": "[3]; 50 mg/L CSF for 15dd", "value": 4}, {"measurement": "Fold-change non-CSF/+CSF (number of embryos)", "setting": "[3]; 100 mg/L CSF for 5dd", "value": 55.5}, {"measurement": "Number of banana embryos developed (Avg)", "setting": "[3]; 100 mg/L CSF for 5dd", "value": 57}, {"measurement": "Fold-change non-CSF/+CSF (number of embryos)", "setting": "[3]; 100 mg/L CSF for 10dd", "value": 517.3}, {"measurement": "Number of banana embryos developed (Avg)", "setting": "[3]; 100 mg/L CSF for 10dd", "value": 8}, {"measurement": "Fold-change non-CSF/+CSF (number of embryos)", "setting": "[3]; 100 mg/L CSF for 15dd", "value": 345.9}, {"measurement": "Number of banana embryos developed (Avg)", "setting": "[3]; 100 mg/L CSF for 15dd", "value": 14}, {"measurement": "CSF concentrations at which colour changes in banana ECS were observed", "setting": "[3]; 2nd kill curve, after treatment", "value": "higher than 5 mg/L"}, {"measurement": "Minimal lethal dose (concentration reducing number of embryos 100×; measure of success met)", "setting": "[3]; 10 days of treatment", "value": 5, "unit": "mg/L"}, {"measurement": "Killing of banana cells", "setting": "[3]; five days of treatment, 2nd kill curve", "value": "inefficient for killing banana cells"}, {"measurement": "CSF concentration reported to be effective", "setting": "[4]", "value": 3.6, "unit": "µg/L"}, {"measurement": "Severity of symptoms", "setting": "[5]; 0.05 mg/L CSF in the medium plus spraying with CSF", "value": "an increase in the severity of symptoms"}, {"measurement": "Root development", "setting": "[5]; CSF in medium, even at 0.05 mg/L", "value": "root development was not observed"}, {"measurement": "Effective CSF concentration added to the medium (plantlets did not develop, chlorotic phenotype)", "setting": "[5]; CSF incorporated in RM medium, repeated 3 times", "value": 0.5, "unit": "mg/L"}, {"measurement": "Lowest concentration that delayed shoot development", "setting": "[5]; spraying banana shoots", "value": 5, "unit": "mg/L"}, {"measurement": "Shoot development", "setting": "[5]; weekly spraying with 0.5 mg/L CSF", "value": "quite effective at delaying banana shoot development"}, {"measurement": "Frequency of ALS edited embryos recovered after selection", "setting": "[6]; CSF 25 μg/L", "value": "1500 ± 500"}, {"measurement": "Frequency of WT embryos recovered after selection", "setting": "[6]; CSF 25 μg/L", "value": 0}, {"measurement": "Frequency of ALS edited embryos recovered after selection", "setting": "[6]; CSF 50 μg/L", "value": "750 ± 250"}, {"measurement": "Frequency of WT embryos recovered after selection", "setting": "[6]; CSF 50 μg/L", "value": 0}, {"measurement": "Frequency of ALS edited embryos recovered after selection", "setting": "[6]; CSF 100 μg/L", "value": 0}, {"measurement": "Frequency of WT embryos recovered after selection", "setting": "[6]; CSF 100 μg/L", "value": 0}, {"measurement": "CSF concentration reported to be effective", "setting": "[7]", "value": 20, "unit": "µg/L"}, {"measurement": "CSF concentration reported to be effective", "setting": "[8]", "value": 0.5, "unit": "µM"}, {"measurement": "Best concentration for selection", "setting": "[9]", "value": 3.6, "unit": "µg/L"}]}]}
